The values that follow come from patent US4774259A, “Phenylalanine derivatives and uses thereof” (Ajinomoto Co., Inc., priority 1985, dated 1988).

A short description of data set [1]: Absorption promoting test of insulin, oral, mice (Example 7): blood glucose and immunoreactive insulin. In kind it is in vivo, female ICR-CDl mice. As to conditions: for Decrease in Blood Glucose / Degree of increase of Blood Insulin: insulin 0.5 unit/10 g, promoter 3 mg/10 g, oral, compared with phosphate buffer control; for effect on decreasing the blood glucose value and increasing the blood insulin level (in words): oral with insulin. As to the method: A test for the absorption of insulin was carried out with absorption promoters of the present invention. Thus, insulin (0.5 unit/10 g weight) and the absorption promoter (3 mg/10 g weight) were suspended in a 0.05M phosphate buffer. Then the group of five female ICR-CDl mice, 5 to 7 weeks old, which were fasted for 18 hours, were orally administered with the prepared suspension.
The blood glucose value and the immunoreactive insulin level of each group of mice were determined at the fixed time.
The percent decrease in blood glucose and the degree of increase of blood insulin as compared with a phosphate buffer control group were shown in Table 2.

For another data set, the system named is male ICR mice. In words: Toxicity test, oral LD50, mice (Example 4). As to conditions: compared with known absorption promoting agents. In kind it is in vivo. As to the method: Predetermined amounts of the absorption promoters listed in the Table were each suspended in 0.5% CMC sodium salt solution. Groups of ten male ICR mice, 4 weeks old, were orally administered with the suspension. Two weeks thereafter, the LD50 values were determined.

Data set [2] in a line: Absorption promoting test of insulin, oral, mice (Example 3): blood glucose value. As to conditions: for decrease in the blood glucose value (in words): oral with insulin, compared with a control group. In kind it is in vivo, female ICR-CDI mice. As to the method:
A test for the promotion of the absorption of insulin was carried out upon the above-described absorption promoters and upon two known absorption promoting agents. Thus, insulin in a prescribed dose (23.3 unit/mg) and the absorption promoter, as given in the Table below, were dissolved or suspended in a 0.05M phosphate buffer. Then groups of five female ICR-CDI mice, 6 to 7 weeks old, which had not been fed for 18 hours, were orally administered with the predetermined buffer solution (0.5 ml). A predetermined time later, the blood glucose value of each group of mice was determined.

For the molecule `Cc1ccc(C(Cl)=CC(=O)N[C@H](Cc2ccccc2)C(=O)O)cc1` [N-(β-chloro-4-methylcinnamoyl)-D-phenylalanine], the “Decrease in Blood Glucose” value in data set [1] (15 minutes) is 35.7%; in data set [1] (30 minutes), 47.8%; in data set [1] (60 minutes), 42.8%. The “Degree of increase of Blood Insulin” value in data set [1] (15 minutes) stood at 2.1; in data set [1] (30 minutes), 3.3; in data set [1] (60 minutes) it was 1.0. In data set [1], the “effect on decreasing the blood glucose value and increasing the blood insulin level (in words)” value was “excellent effect on decreasing the blood glucose value and increasing the blood insulin level”.
For the molecule `Cc1ccc(C=C(F)C(=O)N[C@H](Cc2ccccc2)C(=O)O)cc1` [N-(α-fluoro-4-methylcinnamoyl)-D-phenylalanine], in the data set on male ICR mice, the “LD50 value (in words)” value is reported as “excellent LD50 value”. For the same molecule, the “decrease in the blood glucose value (in words)” value (“decrease … (in words)” below) in data set [2] is recorded as “excellent effect in decreasing the blood glucose value”.
With `Cc1ccc(C=CC(=O)N[C@@H](Cc2ccccc2)C(=O)O)cc1` [N-(4-methylcinnamoyl)-L-phenylalanine], the “Blood Glucose” value in data set [2] (insulin 50 unit/kg, absorption promoter 150 mg/kg, oral, 30 minutes, control 82.4 ± 8.1) turned out to be 78.0 ± 7.8 mg/dL. In addition, in data set [2], the “decrease … (in words)” value is listed as “small”.
Regarding `O=C(N[C@@H](Cc1ccccc1)C(=O)O)C(F)=Cc1ccccc1` [N-(α-fluorocinnamoyl)-L-phenylalanine], in data set [2], the “decrease … (in words)” value is listed as “small”.
Regarding `Cc1ccc(C=C(F)C(=O)N[C@@H](Cc2ccccc2)C(=O)O)cc1` [N-(α-fluoro-4-methylcinnamoyl)-L-phenylalanine], the “LD50 value (in words)” value in the data set on male ICR mice is listed as “excellent LD50 value”. For the same molecule, the “decrease … (in words)” value in data set [2] was “excellent effect in decreasing the blood glucose value”.
With `Cc1ccc(C(Cl)=CC(=O)N[C@@H](Cc2ccccc2)C(=O)O)cc1` [N-(β-chloro-4-methylcinnamoyl)-L-phenylalanine], the “Decrease in Blood Glucose” value in data set [1] (15 minutes) is given as 42.1%; in data set [1] (30 minutes) it was 21.6%; in data set [1] (60 minutes) it was 12.1%. The “Degree of increase of Blood Insulin” value is recorded as 10.5 in data set [1] (15 minutes), 2.0 in data set [1] (30 minutes) and 2.1 in data set [1] (60 minutes). The “effect on decreasing the blood glucose value and increasing the blood insulin level (in words)” value in data set [1] is “excellent effect on decreasing the blood glucose value and increasing the blood insulin level”.
